From ChEMBL document CHEMBL1201862, “PubChem BioAssay data set” (2004)
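In this assay, cells in 96-well plates receive the compound at five concentrations for 48 hours. Endpoints are linearly interpolated between the surrounding concentrations. GI50 marks 50% less growth.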 Active and inactive are the calls of the source. Rule as the data show it: active = GI50 up to about 1.1 µM and inactive = higher.

Assays:
Experiment in all cases: DTP human tumour cell line panel, 48 h
CCRF-CEM = system: CCRF-CEM
SK-OV-3 = system: SK-OV-3
OVCAR-8 = system: OVCAR-8
HCT-15 = system: HCT-15
SK-MEL-5 = system: SK-MEL-5
SK-MEL-2 = system: SK-MEL-2
ACHN = system: ACHN
MDA-N = system: MDA-N
TK-10 = system: TK-10
PC-3 = system: PC-3
EKVX = system: EKVX
CAKI-1 = system: CAKI-1
SN12C = system: SN12C
A549 = system: A549
HOP-62 = system: HOP-62
NCI-H23 = system: NCI-H23
HOP-92 = system: HOP-92
RPMI-8226 = system: RPMI-8226
NCI-H522 = system: NCI-H522
T47D = system: T47D

Compound | GI50 (CCRF-CEM) | GI50 (SK-OV-3) | GI50 (OVCAR-8) | GI50 (HCT-15) [µM] | GI50 (SK-MEL-5) | GI50 (SK-MEL-2) | GI50 (ACHN) | GI50 (MDA-N) | GI50 (TK-10) | GI50 (PC-3) | GI50 (EKVX) | GI50 (CAKI-1) | GI50 (SN12C) | GI50 (A549) | GI50 (HOP-62) | GI50 (NCI-H23) | GI50 (HOP-92) | GI50 (RPMI-8226) | GI50 (NCI-H522) | GI50 (T47D)
CC1(C)N(OC2CCCCO2)C(c2ccccc2)C(c2ccccc2)=[N+]1[O-] (configuration not stated) | 60.5 µM (inactive) | > 100 µM (inactive) | 32.1 µM (inactive) | > 100 | 52.1 µM (inactive) | 51.1 µM (inactive) | > 100 µM (inactive) | > 100 µM (inactive) | > 100 µM (inactive) | 52.2 µM (inactive) | > 100 µM (inactive) | > 100 µM (inactive) | > 100 µM (inactive) | 58.6 µM (inactive) | > 100 µM (inactive) | 49.9 µM (inactive) | > 100 µM (inactive) |  |  | 
CC(=O)OC(C)(C)/C=C/C(=O)[C@](C)(O)[C@H]1[C@H](O)C[C@@]2(C)[C@@H]3CC=C4[C@@H](C[C@H](O)[C@H](O)C4(C)C)[C@]3(C)C(=O)C[C@]12C | 0.229 µM (active) | 2.79 µM (inactive) | 0.33 µM (active) | 0.294 | 0.701 µM (active) | 0.752 µM (active) | 0.498 µM (active) |  | 0.548 µM (active) |  | 0.601 µM (active) | 0.385 µM (active) | 0.401 µM (active) | 0.822 µM (active) | 1.51 µM (inactive) | 0.324 µM (active) | 0.22 µM (active) | 0.107 µM (active) | 0.259 µM (active) | 
CCOC(=O)c1cc(C2(O)CCN(Cc3ccccc3)C2=O)c(-c2cc(C)no2)[nH]1 (configuration not stated) | 29 µM (inactive) |  | 37.3 µM (inactive) | 71.3 | 40 µM (inactive) | 48.8 µM (inactive) | 45.5 µM (inactive) | 57.3 µM (inactive) | 67.1 µM (inactive) | 42.4 µM (inactive) | 41.4 µM (inactive) | 32.8 µM (inactive) | 69 µM (inactive) | 40.1 µM (inactive) | 64.7 µM (inactive) | 73.3 µM (inactive) |  | 26.4 µM (inactive) | 15.4 µM (inactive) | 17.9 µM (inactive)
CC(=O)OCC1OC(SC2=N/C(=C\c3ccc(Br)s3)C(=O)N2CN2CCOCC2)C(OC(C)=O)C(OC(C)=O)C1OC(C)=O (configuration not stated) |  |  | 16.3 µM (inactive) | 16.6 | 19.1 µM (inactive) | 0.383 µM (active) | 16.2 µM (inactive) | 18 µM (inactive) | 16.7 µM (inactive) | 23 µM (inactive) | 8.22 µM (inactive) | 17.9 µM (inactive) | 13.6 µM (inactive) |  | 23 µM (inactive) | 12.7 µM (inactive) |  | 5.97 µM (inactive) | 6.87 µM (inactive) | 27.9 µM (inactive)
COc1cc(/C=C2/SC(c3ccccc3)N(c3cccc([N+](=O)[O-])c3)C2=O)cc(OC)c1OC (configuration not stated) | 22.2 µM (inactive) | > 100 µM (inactive) | > 100 µM (inactive) | > 100 | 50.1 µM (inactive) | > 100 µM (inactive) | > 100 µM (inactive) | 25.1 µM (inactive) | > 100 µM (inactive) |  | > 100 µM (inactive) | > 100 µM (inactive) | > 100 µM (inactive) | > 100 µM (inactive) | > 100 µM (inactive) | > 100 µM (inactive) | > 100 µM (inactive) | > 100 µM (inactive) | 60.5 µM (inactive) | 97.5 µM (inactive)
CC(=O)Oc1cc(OC(C)=O)c2c(c1C)CC[C@@H]1[C@@H]2CC[C@]2(C)[C@@H](OC(C)=O)CC[C@@H]12 | 17.5 µM (inactive) |  | 20.2 µM (inactive) | 17.3 | 17.1 µM (inactive) |  | 17.5 µM (inactive) | 18.6 µM (inactive) | 20 µM (inactive) | 15.6 µM (inactive) | 14.8 µM (inactive) | 24.5 µM (inactive) | 17.5 µM (inactive) | 18.5 µM (inactive) | 20.9 µM (inactive) | 20.2 µM (inactive) | 20.4 µM (inactive) | 8.15 µM (inactive) | 16.7 µM (inactive) | 
NNC(=O)c1ccccc1NC(=O)/C(=C/c1ccccc1O)NC(=O)c1ccccc1 | > 100 µM (inactive) | 39.7 µM (inactive) | 18.1 µM (inactive) | 21.7 | 72.3 µM (inactive) |  | 17.9 µM (inactive) | 4.56 µM (inactive) | > 100 µM (inactive) |  | 33.6 µM (inactive) | 12.9 µM (inactive) | 28 µM (inactive) | > 100 µM (inactive) |  | 38.4 µM (inactive) | 38.9 µM (inactive) | > 100 µM (inactive) | 13.4 µM (inactive) | 11.5 µM (inactive)
O=C(CCc1nnc(S)[nH]1)Nc1cc(Cl)ccc1Cl | > 100 µM (inactive) | > 100 µM (inactive) | > 100 µM (inactive) | > 100 | > 100 µM (inactive) | > 100 µM (inactive) | > 100 µM (inactive) |  | > 100 µM (inactive) |  | > 100 µM (inactive) | > 100 µM (inactive) | > 100 µM (inactive) | > 100 µM (inactive) | > 100 µM (inactive) | > 100 µM (inactive) | > 100 µM (inactive) | > 100 µM (inactive) | > 100 µM (inactive) | 
COc1ccc(NC(/C(C(=O)c2ccccc2)=C(\O)C(=O)/C=C(\O)c2ccccc2)c2ccc(OC)cc2)cc1 (configuration not stated) | 32.8 µM (inactive) | 39.3 µM (inactive) | 59.6 µM (inactive) | 42.1 | 49.3 µM (inactive) | 23.6 µM (inactive) | 64.9 µM (inactive) |  | 30.3 µM (inactive) | 39.3 µM (inactive) | 18.7 µM (inactive) | 33.2 µM (inactive) | > 100 µM (inactive) | 28.6 µM (inactive) | 52.4 µM (inactive) | 47 µM (inactive) | 7.6 µM (inactive) | 24.2 µM (inactive) | 15.2 µM (inactive) | 24.5 µM (inactive)
C[C@]12CCc3nonc3C1CC[C@@H]1C2CC[C@]2(C)NC(=O)CCC12 (some centres not stated) | > 100 µM (inactive) | > 100 µM (inactive) | > 100 µM (inactive) | > 100 | > 100 µM (inactive) | > 100 µM (inactive) | > 100 µM (inactive) |  | > 100 µM (inactive) |  | > 100 µM (inactive) | > 100 µM (inactive) | > 100 µM (inactive) | > 100 µM (inactive) | > 100 µM (inactive) | > 100 µM (inactive) | > 100 µM (inactive) | > 100 µM (inactive) | > 100 µM (inactive) | 
CCOC(=O)c1c(NC(=O)c2ccc(OC)cc2)sc2c1CCCC2 | > 100 µM (inactive) |  | > 100 µM (inactive) |  | > 100 µM (inactive) | > 100 µM (inactive) | > 100 µM (inactive) | > 100 µM (inactive) | > 100 µM (inactive) | > 100 µM (inactive) | > 100 µM (inactive) | > 100 µM (inactive) | > 100 µM (inactive) | > 100 µM (inactive) | > 100 µM (inactive) | > 100 µM (inactive) |  | > 100 µM (inactive) |  | > 100 µM (inactive)
ClCCNCCNCCCl.ClCCNCCNCCCl.[O-][Cl+3]([O-])([O-])O | 29.5 µM (inactive) | > 100 µM (inactive) | 18.9 µM (inactive) | 55.8 | 23 µM (inactive) | 21.4 µM (inactive) | 21.9 µM (inactive) |  | 49.9 µM (inactive) |  | > 100 µM (inactive) | 19.1 µM (inactive) | 61.2 µM (inactive) | 73.5 µM (inactive) | > 100 µM (inactive) | 27.9 µM (inactive) | 39.7 µM (inactive) | 33.3 µM (inactive) | 11.4 µM (inactive) | 
COc1ccc([C@H](NC(=O)c2ccccc2)[C@@H](O)C(=O)O[C@H]2C[C@@]3(O)C(OC(=O)c4ccccc4)C4[C@](C)(C(=O)[C@H](OC(C)=O)C(=C2C)C3(C)C)[C@@H](O)C[C@H]2OC[C@@]42OC(C)=O)cc1 (some centres not stated) | 0.00184 µM (active) | 0.00117 µM (active) | 0.00434 µM (active) | 0.366 | 0.00244 µM (active) | 0.00705 µM (active) | 0.724 µM (active) | 0.00468 µM (active) | 0.0703 µM (active) | 0.00255 µM (active) | 0.22 µM (active) | 0.249 µM (active) | 0.00284 µM (active) | 0.00618 µM (active) | 0.015 µM (active) | 0.00236 µM (active) | 0.0586 µM (active) | < 0.001 µM (active) | 0.00227 µM (active) | 
O=S1(=O)OCCOS(=O)(=O)C1S(=O)(=O)c1cccc2ccccc12 | > 100 µM (inactive) |  | > 100 µM (inactive) | > 100 | > 100 µM (inactive) | > 100 µM (inactive) | > 100 µM (inactive) | > 100 µM (inactive) | > 10 µM (inactive) | 42.3 µM (inactive) | > 100 µM (inactive) | > 100 µM (inactive) | > 100 µM (inactive) | > 100 µM (inactive) | > 100 µM (inactive) | > 100 µM (inactive) | > 100 µM (inactive) | > 100 µM (inactive) |  | 
Cn1cnc2c(OCC3CCCCC3)nc(N)nc21 | > 100 µM (inactive) | > 100 µM (inactive) | > 100 µM (inactive) | > 100 | 70.6 µM (inactive) | > 100 µM (inactive) | < 0.01 µM (active) | > 100 µM (inactive) | > 100 µM (inactive) | > 100 µM (inactive) | > 100 µM (inactive) | > 100 µM (inactive) | > 100 µM (inactive) | > 100 µM (inactive) | > 100 µM (inactive) | > 100 µM (inactive) | 32.4 µM (inactive) | > 100 µM (inactive) | > 100 µM (inactive) | 
